Results as given in ChEMBL document CHEMBL1149679 (Bioorg Med Chem Lett, 2007).

How the values were obtained:
[1] = molecular target: T1, Polyunsaturated fatty acid lipoxygenase ALOX15 (Oryctolagus cuniculus, UniProt P12530); experiment: Inhibition of rabbit 15-lipoxygenase in presence of arachidonic acid
T1 sequence (P12530 whole entry): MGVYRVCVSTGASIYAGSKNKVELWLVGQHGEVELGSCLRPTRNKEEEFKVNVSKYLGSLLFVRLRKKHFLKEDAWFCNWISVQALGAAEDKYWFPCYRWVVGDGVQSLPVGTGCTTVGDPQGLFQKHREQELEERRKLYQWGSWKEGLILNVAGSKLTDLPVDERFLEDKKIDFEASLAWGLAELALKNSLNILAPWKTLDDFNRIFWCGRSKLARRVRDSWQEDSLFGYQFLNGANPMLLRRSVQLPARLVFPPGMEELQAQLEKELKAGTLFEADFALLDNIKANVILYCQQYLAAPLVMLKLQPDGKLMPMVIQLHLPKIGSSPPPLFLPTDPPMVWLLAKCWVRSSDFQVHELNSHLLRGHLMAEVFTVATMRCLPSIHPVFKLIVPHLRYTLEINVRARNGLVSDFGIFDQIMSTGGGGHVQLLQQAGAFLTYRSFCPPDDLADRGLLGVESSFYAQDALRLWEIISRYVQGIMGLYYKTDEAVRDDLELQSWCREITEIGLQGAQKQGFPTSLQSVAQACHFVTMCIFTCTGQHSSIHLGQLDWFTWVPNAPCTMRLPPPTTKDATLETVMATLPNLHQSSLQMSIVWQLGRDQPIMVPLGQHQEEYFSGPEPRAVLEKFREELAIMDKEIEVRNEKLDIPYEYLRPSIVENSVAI

[2] = molecular target: T1, Polyunsaturated fatty acid lipoxygenase ALOX15; experiment: Inhibition of rabbit 15-lipoxygenase in presence of linoleic acid
[3] = molecular target: T2, Polyunsaturated fatty acid lipoxygenase ALOX12 (Homo sapiens) (UniProt P18054); experiment: Inhibition of platelet 12-lipoxygenase at 10 uM
T2 sequence (whole entry): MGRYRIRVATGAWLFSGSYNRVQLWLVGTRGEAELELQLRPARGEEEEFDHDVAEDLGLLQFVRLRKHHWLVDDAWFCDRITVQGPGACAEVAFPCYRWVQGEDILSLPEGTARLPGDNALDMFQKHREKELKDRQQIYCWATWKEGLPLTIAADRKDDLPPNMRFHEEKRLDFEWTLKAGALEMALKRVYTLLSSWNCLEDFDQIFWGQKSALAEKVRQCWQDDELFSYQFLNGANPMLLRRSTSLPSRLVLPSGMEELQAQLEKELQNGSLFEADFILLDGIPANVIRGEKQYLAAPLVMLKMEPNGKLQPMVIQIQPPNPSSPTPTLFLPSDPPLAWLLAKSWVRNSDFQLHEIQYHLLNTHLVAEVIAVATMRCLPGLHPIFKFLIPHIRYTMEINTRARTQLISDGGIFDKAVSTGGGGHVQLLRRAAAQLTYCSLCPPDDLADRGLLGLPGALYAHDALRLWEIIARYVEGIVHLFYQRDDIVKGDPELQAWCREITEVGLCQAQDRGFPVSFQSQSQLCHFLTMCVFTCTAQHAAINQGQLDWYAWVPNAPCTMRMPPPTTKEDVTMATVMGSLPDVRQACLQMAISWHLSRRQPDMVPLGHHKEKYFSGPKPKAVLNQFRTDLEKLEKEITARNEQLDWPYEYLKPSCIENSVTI

[4] = molecular target: T3, Polyunsaturated fatty acid 5-lipoxygenase (Homo sapiens) (UniProt P09917); experiment: Inhibition of human 5-lipoxygenase at 10 uM
T3 sequence (whole entry): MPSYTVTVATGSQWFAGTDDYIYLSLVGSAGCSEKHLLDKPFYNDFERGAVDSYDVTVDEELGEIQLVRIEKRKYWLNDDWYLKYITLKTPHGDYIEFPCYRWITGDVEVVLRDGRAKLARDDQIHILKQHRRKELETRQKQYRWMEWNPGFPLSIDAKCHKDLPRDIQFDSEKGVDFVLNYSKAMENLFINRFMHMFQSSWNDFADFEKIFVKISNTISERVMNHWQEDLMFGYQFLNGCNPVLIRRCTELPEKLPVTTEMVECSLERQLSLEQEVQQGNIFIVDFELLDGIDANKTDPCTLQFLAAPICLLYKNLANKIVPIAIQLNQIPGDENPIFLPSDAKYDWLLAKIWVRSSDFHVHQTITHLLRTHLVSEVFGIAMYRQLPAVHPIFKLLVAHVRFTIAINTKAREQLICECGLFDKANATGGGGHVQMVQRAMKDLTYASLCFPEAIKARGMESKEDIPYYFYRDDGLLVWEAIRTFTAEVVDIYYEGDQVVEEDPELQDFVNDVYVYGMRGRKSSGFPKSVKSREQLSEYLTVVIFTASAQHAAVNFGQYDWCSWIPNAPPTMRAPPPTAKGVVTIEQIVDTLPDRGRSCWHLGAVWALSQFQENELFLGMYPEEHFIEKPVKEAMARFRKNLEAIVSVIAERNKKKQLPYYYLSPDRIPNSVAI

[5] = Cmax in Sprague-Dawley rat at 7 mg/kg, po; type: ADME, organism-based; design: dose 7 mg/kg, route oral; conditions: in vivo
[6] = AUC in Sprague-Dawley rat at 7 mg/kg, po; type: ADME, organism-based; design: dose 7 mg/kg, route oral; conditions: plasma
[7] = molecular target: T4, Polyunsaturated fatty acid lipoxygenase ALOX15B (Homo sapiens) (UniProt O15296); experiment: Inhibition of human recombinant 15-lipoxygenase over-expressed in CHO cells at 10 uM; type: cell-based
T4 sequence (whole entry): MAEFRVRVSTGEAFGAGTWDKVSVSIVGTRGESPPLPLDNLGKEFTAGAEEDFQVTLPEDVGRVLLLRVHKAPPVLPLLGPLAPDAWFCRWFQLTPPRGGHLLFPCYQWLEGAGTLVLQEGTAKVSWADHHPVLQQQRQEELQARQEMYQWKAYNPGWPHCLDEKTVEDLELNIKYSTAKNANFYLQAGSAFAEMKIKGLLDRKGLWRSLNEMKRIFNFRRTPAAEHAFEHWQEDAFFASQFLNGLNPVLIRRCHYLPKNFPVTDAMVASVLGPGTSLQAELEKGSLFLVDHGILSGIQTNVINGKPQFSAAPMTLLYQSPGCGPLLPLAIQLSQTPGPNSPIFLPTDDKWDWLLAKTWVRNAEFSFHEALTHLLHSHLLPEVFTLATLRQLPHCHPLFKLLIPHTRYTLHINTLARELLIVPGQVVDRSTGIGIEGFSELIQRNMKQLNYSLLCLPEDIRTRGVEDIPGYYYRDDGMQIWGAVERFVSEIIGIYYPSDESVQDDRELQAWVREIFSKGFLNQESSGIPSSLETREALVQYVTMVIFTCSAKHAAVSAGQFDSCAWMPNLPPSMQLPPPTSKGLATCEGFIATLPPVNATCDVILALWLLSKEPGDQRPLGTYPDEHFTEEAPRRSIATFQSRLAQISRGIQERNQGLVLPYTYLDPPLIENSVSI

[8] = molecular target: T2, Polyunsaturated fatty acid lipoxygenase ALOX12 (Homo sapiens); experiment: Inhibition of platelet 12-lipoxygenase at 3 uM
[9] = molecular target: T3, Polyunsaturated fatty acid 5-lipoxygenase (Homo sapiens); experiment: Inhibition of human 5-lipoxygenase at 3 uM
[10] = molecular target: T5, Polyunsaturated fatty acid lipoxygenase ALOX12 (Homo sapiens, UniProt P18054); experiment: Inhibition of platelet 12-lipoxygenase
T5 sequence (P18054 whole entry): T2 sequence (whole entry)

[11] = molecular target: T6, Polyunsaturated fatty acid 5-lipoxygenase (Homo sapiens, UniProt P09917); experiment: Inhibition of 5-lipoxygenase
T6 sequence (P09917 whole entry): T3 sequence (whole entry)

[12] = Aqueous solubility at pH6.5; type: physicochemical; conditions: buffer, pH 6.5
[13] = Hydrophilicity, log D at pH 6.5; type: physicochemical; conditions: buffer

Row | Compound | IC50 [1] | IC50 [2] | inhibition [3] | inhibition [4] | inhibition [7] | also measured
1 | CCCCCc1ccc(S(=O)(=O)NCCc2nc(-c3ccccc3)[nH]c2-c2ccc(F)cc2)cc1 | 261 nM | 59 nM | 47% | 45% |  | 
2 | CCCCCc1ccc(S(=O)(=O)NCCc2nc(-c3ccccc3)[nH]c2-c2ccccc2)cc1 | 162 nM | 33 nM | 32% | 39% |  | 
3 | CCCCN1CCN(S(=O)(=O)NCCc2nc(-c3cccs3)[nH]c2-c2ccc(OC)cc2)CC1 | 50 nM | 14 nM |  |  |  | Cmax [5]: 1700 nM; AUC [6]: 4.4 µM·h
4 | COc1ccc(-c2[nH]c(-c3cccs3)nc2CCNS(=O)(=O)N2CCN(c3ccc(Cl)c(Cl)c3)CC2)cc1 | 133 nM | 36 nM |  |  | 84% | 
5 | CCCCCc1ccc(S(=O)(=O)NCCc2nc(-c3ccccc3)[nH]c2-c2ccc(OC)cc2)cc1 | 50 nM | 14 nM |  |  | 83% | inhibition [8]: 45%; inhibition [9]: 15%
6 | COc1ccc(-c2[nH]c(-c3cccs3)nc2CCNS(=O)(=O)N(C)[C@@H]2CCN(Cc3ccc(Cl)c(Cl)c3)C2)cc1 | 83 nM | 11 nM | 42% | 67% |  | 
7 | CCN([C@@H]1CCN(C(C)c2ccc(F)cc2)C1)S(=O)(=O)NCCc1nc(-c2cccs2)[nH]c1-c1ccc(OC)cc1 (stereo partly drawn) |  |  |  |  | 96% | 
8 | COc1ccc(-c2[nH]c(-c3ccccc3)nc2CCNS(=O)(=O)N(C)[C@@H]2CCN(Cc3ccccc3)C2)cc1 | 186 nM | 31 nM |  |  | 70% | 
9 | CCCCCc1ccc(S(=O)(=O)NCCc2nc(-c3cccs3)[nH]c2-c2ccc(OC)cc2)cc1 | 13 nM | 6 nM | 50% | 41% | 98% | IC50 [10]: 9700 nM; Cmax [5]: 600 nM; IC50 [11]: > 10000 nM; solubility [12]: < 1 µg/mL; logD [13]: > 6
